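Dose response: 5 concentrations. Exposure: 48 h. Format: 96-well plates. Endpoint: linear interpolation; highest concentration if not reached. At the GI50, growth is halved.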 Calls of active or inactive are those of the source. Cut-off read from the data, not from the text of the source: active = GI50 up to about 1.1 µM and inactive = higher.

Among the test systems are HOP-62; UO-31; CAKI-1; MOLT-4; SK-MEL-2; DU-145; HOP-92; BT-549; RPMI-8226; NCI-H460; MCF7; SF-539; HL-60; ACHN; RXF 393; HT-29; LOX IMVI; HCC 2998; IGROV-1; SK-MEL-28.
Common to all, as to test: NCI-60 cell line screen, 48 h

For the compound `O=C1C(Cl)=C(Cl)C(=O)N1c1ccc(F)cc1` [FLUOROIMIDE], the GI50 with HOP-62 is > 67.9 µM (inactive); with UO-31, 22 µM (inactive); with CAKI-1 it was 13.7 µM (inactive); with MOLT-4, 6.22 µM (inactive); with SK-MEL-2 it was 46.1 µM (inactive); in the test on DU-145, 37.9 µM (inactive). Besides, the GI50 was 17.6 µM (inactive) with HOP-92; 16.5 µM (inactive) in the test on BT-549; 15.1 µM (inactive) with RPMI-8226; > 83.6 µM (inactive) in the test with NCI-H460; 20.7 µM (inactive) in the test on MCF7; 23.5 µM (inactive) in the test with SF-539. Also, the GI50 was 1.89 µM (inactive) with HL-60; 18.2 µM (inactive) in the test with ACHN; 22.5 µM (inactive) in the test with RXF 393; 22.5 µM (inactive) in the test on HT-29; 16.5 µM (inactive) in the test with LOX IMVI; 19.6 µM (inactive) in the test with HCC 2998. Moreover, the figures for the GI50 in the test with IGROV-1 and in the test with SK-MEL-28 were 18.6 µM (inactive) and 19.7 µM (inactive), respectively.
On to `Cc1ccc(-c2cn3c(nc4ccccc43)c(C)n2)cc1`, for which the GI50 with HOP-62 was 30.8 µM (inactive); with UO-31 it was 2.71 µM (inactive); in the test with CAKI-1 it was > 100 µM (inactive); in the test on MOLT-4, 43.7 µM (inactive); with SK-MEL-2 it was > 43.4 µM (inactive); with DU-145 it was 46.5 µM (inactive). Besides, the GI50 in the test on HOP-92 was 8.93 µM (inactive); in the test on BT-549 it was 25.9 µM (inactive); with RPMI-8226 it was 30.7 µM (inactive); in the test with NCI-H460, 26.7 µM (inactive); in the test with MCF7, 0.578 µM (active); in the test on SF-539, > 54.3 µM (inactive). Also, the GI50 is 26.5 µM (inactive) with HL-60; 30.3 µM (inactive) with ACHN; 21.8 µM (inactive) with RXF 393; 24.4 µM (inactive) with HT-29; 71.6 µM (inactive) with LOX IMVI; > 100 µM (inactive) in the test with HCC 2998. Also, the GI50 was 11.7 µM (inactive) in the test on IGROV-1 and 58.2 µM (inactive) in the test with SK-MEL-28.
In the case of `Cc1nc(-c2ccccc2)cn2c1nc1ccccc12`, the GI50 with HOP-62 was 20.9 µM (inactive); in the test with UO-31 it was 13.6 µM (inactive); in the test on CAKI-1 it was 21.1 µM (inactive); with MOLT-4 it was 44 µM (inactive); in the test on SK-MEL-2, 20.2 µM (inactive); in the test on DU-145, 31.8 µM (inactive). For the same compound, the GI50 with HOP-92 was 21 µM (inactive); with BT-549 it was 17.4 µM (inactive); in the test with RPMI-8226 it was 41.1 µM (inactive); with NCI-H460, 17.7 µM (inactive); in the test with MCF7, 2.8 µM (inactive); in the test with SF-539 it was 23.1 µM (inactive). The GI50 was 67 µM (inactive) in the test with HL-60; 21.7 µM (inactive) in the test on ACHN; 19.6 µM (inactive) in the test with RXF 393; 24.3 µM (inactive) in the test with HT-29; 20.8 µM (inactive) in the test on LOX IMVI; 51.4 µM (inactive) in the test on HCC 2998. The GI50 with IGROV-1 is 19.9 µM (inactive); in the test with SK-MEL-28, 30.5 µM (inactive).
With `COc1cc(/C=C2\C[C@H]3[C@@H]4CCC5=CC(=O)CC[C@]5(C)[C@H]4CC[C@]3(C)C2=O)cc(OC)c1OC`, the GI50 is 12.8 µM (inactive) with HOP-62; 2.72 µM (inactive) with UO-31; 5.37 µM (inactive) with CAKI-1; 2.13 µM (inactive) with MOLT-4; 7.19 µM (inactive) in the test on SK-MEL-2; 19.5 µM (inactive) with DU-145. Also, the GI50 is 13.1 µM (inactive) in the test on HOP-92; 3.29 µM (inactive) in the test with BT-549; 2.38 µM (inactive) in the test with RPMI-8226; 6.35 µM (inactive) in the test on NCI-H460; 3.56 µM (inactive) in the test on MCF7; 46.7 µM (inactive) in the test with SF-539. Besides, the GI50 in the test with HL-60 was 3.39 µM (inactive); in the test with ACHN it was 9.16 µM (inactive); in the test with RXF 393, 10.1 µM (inactive); in the test with HT-29 it was 5.82 µM (inactive); in the test with LOX IMVI, 7.94 µM (inactive); in the test with HCC 2998 it was 15 µM (inactive). Also, the GI50 is 8.99 µM (inactive) in the test on IGROV-1 and 15.9 µM (inactive) in the test on SK-MEL-28.
For the compound `CS(=O)(=O)Nc1ccc2c(c1)oc(=O)c1ccccc12`, the GI50 with HOP-62 is > 100 µM (inactive); with UO-31, 38.5 µM (inactive); in the test on CAKI-1, > 100 µM (inactive); in the test with MOLT-4, > 100 µM (inactive); with SK-MEL-2, > 100 µM (inactive); in the test on DU-145, > 100 µM (inactive). The GI50 in the test on HOP-92, in the test with BT-549, in the test with RPMI-8226, in the test on NCI-H460, in the test on MCF7 and with SF-539 was > 100 µM (inactive) throughout. Also, the GI50 with HL-60, with ACHN, in the test with RXF 393, with HT-29, in the test with LOX IMVI and in the test on HCC 2998 was > 100 µM (inactive) each time. For the same compound, the GI50 with IGROV-1 and in the test on SK-MEL-28 was > 100 µM (inactive) throughout.
With `CN1CCN(C2=C(Cl)C(=O)c3c(O)ccc(O)c3C2=O)CC1`, the GI50 was 1.92 µM (inactive) in the test with HOP-62; 0.646 µM (active) in the test with UO-31; 0.546 µM (active) with CAKI-1; 0.13 µM (active) in the test with MOLT-4; 1.21 µM (inactive) with SK-MEL-2; 1.78 µM (inactive) with DU-145. Also, the GI50 is 0.223 µM (active) with HOP-92; 0.486 µM (active) in the test with BT-549; 1.44 µM (inactive) in the test with RPMI-8226; 1.94 µM (inactive) with NCI-H460; 0.24 µM (active) in the test on MCF7; 0.959 µM (active) in the test with SF-539. Moreover, the GI50 was 0.103 µM (active) in the test with HL-60; 0.286 µM (active) in the test with ACHN; 0.18 µM (active) in the test on RXF 393; 0.359 µM (active) in the test with HT-29; 0.635 µM (active) in the test on LOX IMVI; 2.04 µM (inactive) in the test with HCC 2998. Besides, the GI50 in the test with IGROV-1 was 1.3 µM (inactive); with SK-MEL-28, 0.995 µM (active).
As to `CN1CCN(c2cc3nc4cc(O)cc(O)c4c(O)c3cc2N)CC1`, the GI50 with HOP-62 is 33.6 µM (inactive); in the test on UO-31 it was 19.7 µM (inactive); in the test on CAKI-1 it was 23.3 µM (inactive); with MOLT-4 it was 0.33 µM (active); in the test with SK-MEL-2 it was 19.4 µM (inactive); in the test with DU-145 it was 46.5 µM (inactive). In addition, the GI50 with HOP-92 was 10.6 µM (inactive); in the test with BT-549 it was 28.6 µM (inactive); with RPMI-8226, 20.8 µM (inactive); in the test with NCI-H460 it was 36.3 µM (inactive); with MCF7, 17.7 µM (inactive); in the test with SF-539, 0.608 µM (active). Besides, the GI50 is 20.1 µM (inactive) with HL-60; 27.5 µM (inactive) in the test on ACHN; 20.7 µM (inactive) with RXF 393; 23.2 µM (inactive) with HT-29; 16.2 µM (inactive) in the test with LOX IMVI; 16.2 µM (inactive) in the test with HCC 2998. In addition, the values for the GI50 in the test on IGROV-1 and with SK-MEL-28 were 20.2 µM (inactive) and 27.2 µM (inactive), respectively.
For the compound `O=C(NCCCCCCCCNC(=O)Nc1cccc2ccccc12)Nc1cccc2ccccc12`, the GI50 in the test on HOP-62 was 12.8 µM (inactive); with UO-31, 21.4 µM (inactive); in the test on CAKI-1, 40.9 µM (inactive); in the test on MOLT-4 it was 41.6 µM (inactive); in the test on SK-MEL-2, 83.9 µM (inactive); in the test with DU-145, > 100 µM (inactive). Besides, the GI50 is 6.92 µM (inactive) in the test with HOP-92; 31.6 µM (inactive) in the test with BT-549; > 100 µM (inactive) in the test on RPMI-8226; 3.5 µM (inactive) in the test with NCI-H460; 13.8 µM (inactive) in the test with MCF7; 10.8 µM (inactive) in the test with SF-539. The GI50 is 33.4 µM (inactive) with HL-60; 85.9 µM (inactive) in the test with ACHN; 22.6 µM (inactive) with RXF 393; > 100 µM (inactive) in the test with HT-29; 8.34 µM (inactive) in the test with LOX IMVI; 30.1 µM (inactive) with HCC 2998. Besides, the results for the GI50 with IGROV-1 and in the test with SK-MEL-28 were 50.6 µM (inactive) and 57.7 µM (inactive), respectively.
`CC(C)=CCC[C@@H](C)C1=C(O)C(=O)C(C)=C(Nc2ccccc2Br)C1=O`: the GI50 in the test with HOP-62 is 12.4 µM (inactive); in the test on UO-31, 11.3 µM (inactive); with CAKI-1, 18.6 µM (inactive); in the test on MOLT-4, 4.09 µM (inactive); with SK-MEL-2 it was 13.3 µM (inactive); with DU-145 it was 14.4 µM (inactive). Besides, the GI50 with HOP-92 is 11.6 µM (inactive); with BT-549, 14 µM (inactive); in the test on RPMI-8226, 8.24 µM (inactive); in the test with NCI-H460, 13.4 µM (inactive); in the test with MCF7, 18.2 µM (inactive); with SF-539, 8.59 µM (inactive). In addition, the GI50 in the test with HL-60 is 2.73 µM (inactive); with ACHN it was 15.6 µM (inactive); in the test with RXF 393, 14.3 µM (inactive); with HT-29, 19.6 µM (inactive); in the test on LOX IMVI it was 11.9 µM (inactive); in the test on HCC 2998, 30.4 µM (inactive). Also, the GI50 was 8.69 µM (inactive) in the test with IGROV-1 and 14.4 µM (inactive) in the test with SK-MEL-28.
Turning to `CN(C)CCCn1c(Cc2ccc(Cl)cc2)nc2cc(C(F)(F)F)ccc21`, the GI50 in the test with HOP-62 is 15.2 µM (inactive); in the test on UO-31 it was 0.301 µM (active); in the test with CAKI-1, 13.3 µM (inactive); in the test on MOLT-4, 11.2 µM (inactive); with SK-MEL-2 it was 16.9 µM (inactive); in the test on DU-145, 14.1 µM (inactive). The GI50 was 9.98 µM (inactive) in the test on HOP-92; 17 µM (inactive) in the test with BT-549; 40.8 µM (inactive) in the test with RPMI-8226; 13.2 µM (inactive) with NCI-H460; 14.5 µM (inactive) in the test on MCF7; 16.3 µM (inactive) in the test on SF-539. Also, the GI50 in the test with HL-60 is 29.6 µM (inactive); in the test on ACHN it was 13.2 µM (inactive); with RXF 393, 9.06 µM (inactive); in the test on HT-29 it was 14.6 µM (inactive); in the test with LOX IMVI, 14.5 µM (inactive); with HCC 2998, 2 µM (inactive). Besides, the GI50 in the test with IGROV-1 is 13.1 µM (inactive); in the test on SK-MEL-28, 17.9 µM (inactive).
